Test results: US6432969B1, “N-(substituted glycyl)-2 cyanopyrrolidines, pharmaceutical compositions containing them and their use in inhibiting dipeptidyl peptidase-IV” (Novartis AG, priority 2000, dated 2002)
Where a name gives a salt, the structure may show the parent alone.

What was measured:
[1] = target: T1, DPP-IV activity in human plasma (Homo sapiens, UniProt P27487); experiment: Human plasma DPP-IV assay; assay type: biochemical; conditions: substrate H-Gly-Pro-AMC
T1 construct: from tissue; host or cells: human plasma
T1 sequence (P27487 39-766 limits assumed): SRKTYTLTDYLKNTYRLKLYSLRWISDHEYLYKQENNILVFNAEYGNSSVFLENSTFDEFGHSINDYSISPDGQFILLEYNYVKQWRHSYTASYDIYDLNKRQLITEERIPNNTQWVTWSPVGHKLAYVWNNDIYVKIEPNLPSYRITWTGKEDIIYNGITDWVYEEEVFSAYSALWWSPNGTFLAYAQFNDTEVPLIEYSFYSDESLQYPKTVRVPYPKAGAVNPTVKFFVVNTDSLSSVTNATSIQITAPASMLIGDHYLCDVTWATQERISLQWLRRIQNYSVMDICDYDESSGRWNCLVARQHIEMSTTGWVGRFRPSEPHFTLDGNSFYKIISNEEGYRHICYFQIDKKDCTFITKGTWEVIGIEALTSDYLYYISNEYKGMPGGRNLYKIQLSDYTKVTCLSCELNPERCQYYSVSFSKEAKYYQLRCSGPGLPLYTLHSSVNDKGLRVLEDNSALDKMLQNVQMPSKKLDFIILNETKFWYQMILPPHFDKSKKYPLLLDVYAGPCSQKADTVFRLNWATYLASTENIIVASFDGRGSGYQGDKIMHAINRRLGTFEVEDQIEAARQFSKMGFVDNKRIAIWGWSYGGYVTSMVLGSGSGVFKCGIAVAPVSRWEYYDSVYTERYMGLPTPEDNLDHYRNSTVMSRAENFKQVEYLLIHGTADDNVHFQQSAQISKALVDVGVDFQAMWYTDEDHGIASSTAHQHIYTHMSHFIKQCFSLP
Experimental: (§1) Briefly, 5 μl of plasma are added to 96-well flat-bottom micortiter plates (Falcon), followed by the addition of 5 μl of 80 mM MgCl2 in incubation buffer (25 mMHEPES, 140 mM NaCl, 1% RIA-grade BSA, pH 7.8). After a 60 min. incubation at room temperature, the reaction is initiated by the addition of 10 μl of incubation buffer containing 0.1 mM substrate (H-Glycine-Proline-AMC; AMC is 7-amino 4-methylcoumarin). The plates are covered with aluminum foil (or kept in the dark) and incubated at room temperature for 20 min. […] A fluorescence-concentration curve of free AMC is generated using 0-50 μM solutions of AMC in assay buffer. The curve generated is linear and is used for interpolation of substrate consumption (catalytic activity in nmoles substrate cleaved/min). As with the previous assay, the potency of the test compounds as DPP-IV inhibitors, expressed as IC50, is calculated from 8-point, dose-response curves using a 4 parameter logistic function.

[2] = target: T2, DPP-IV activity in rat plasma (Rattus norvegicus, UniProt P14740); experiment: Rat plasma DPP-IV assay; assay type: biochemical; conditions: substrate H-Gly-Pro-AMC
T2 construct: from tissue; host or cells: rat plasma
T2 sequence (P14740 38-767 limits assumed): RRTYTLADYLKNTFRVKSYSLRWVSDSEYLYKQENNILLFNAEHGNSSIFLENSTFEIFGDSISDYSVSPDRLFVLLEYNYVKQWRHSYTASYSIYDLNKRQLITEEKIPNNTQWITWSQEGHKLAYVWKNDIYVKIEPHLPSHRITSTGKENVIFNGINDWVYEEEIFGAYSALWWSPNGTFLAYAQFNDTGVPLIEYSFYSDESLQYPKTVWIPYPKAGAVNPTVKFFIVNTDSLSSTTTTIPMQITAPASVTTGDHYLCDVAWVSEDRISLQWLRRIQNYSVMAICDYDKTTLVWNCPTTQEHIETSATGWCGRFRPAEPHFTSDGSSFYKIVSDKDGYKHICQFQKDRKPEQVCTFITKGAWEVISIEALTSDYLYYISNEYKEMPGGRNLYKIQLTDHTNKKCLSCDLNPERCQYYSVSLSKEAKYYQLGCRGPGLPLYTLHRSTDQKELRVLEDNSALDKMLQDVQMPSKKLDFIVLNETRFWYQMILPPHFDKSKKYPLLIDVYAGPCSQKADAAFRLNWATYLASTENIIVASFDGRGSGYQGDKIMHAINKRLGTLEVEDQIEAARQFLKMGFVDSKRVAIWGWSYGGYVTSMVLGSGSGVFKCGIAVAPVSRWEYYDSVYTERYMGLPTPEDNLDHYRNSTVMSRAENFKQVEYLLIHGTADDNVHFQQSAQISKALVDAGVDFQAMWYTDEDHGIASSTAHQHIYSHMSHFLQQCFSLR
Experimental: as §1

[3] = target: T3, DPP-IV activity from human colonic carcinoma cell (Caco-2) extracts (Homo sapiens, UniProt P27487); experiment: Caco-2 DPP-IV Assay; assay type: biochemical; conditions: Caco-2 cell extract, substrate H-Ala-Pro-pNA, 8-point dose-response
T3 construct: Cell extract is prepared from cells solubilized in 10 mM Tris HCl; host or cells: Caco-2, differentiated to induce DPP-IV expression
T3 sequence (P27487 whole entry): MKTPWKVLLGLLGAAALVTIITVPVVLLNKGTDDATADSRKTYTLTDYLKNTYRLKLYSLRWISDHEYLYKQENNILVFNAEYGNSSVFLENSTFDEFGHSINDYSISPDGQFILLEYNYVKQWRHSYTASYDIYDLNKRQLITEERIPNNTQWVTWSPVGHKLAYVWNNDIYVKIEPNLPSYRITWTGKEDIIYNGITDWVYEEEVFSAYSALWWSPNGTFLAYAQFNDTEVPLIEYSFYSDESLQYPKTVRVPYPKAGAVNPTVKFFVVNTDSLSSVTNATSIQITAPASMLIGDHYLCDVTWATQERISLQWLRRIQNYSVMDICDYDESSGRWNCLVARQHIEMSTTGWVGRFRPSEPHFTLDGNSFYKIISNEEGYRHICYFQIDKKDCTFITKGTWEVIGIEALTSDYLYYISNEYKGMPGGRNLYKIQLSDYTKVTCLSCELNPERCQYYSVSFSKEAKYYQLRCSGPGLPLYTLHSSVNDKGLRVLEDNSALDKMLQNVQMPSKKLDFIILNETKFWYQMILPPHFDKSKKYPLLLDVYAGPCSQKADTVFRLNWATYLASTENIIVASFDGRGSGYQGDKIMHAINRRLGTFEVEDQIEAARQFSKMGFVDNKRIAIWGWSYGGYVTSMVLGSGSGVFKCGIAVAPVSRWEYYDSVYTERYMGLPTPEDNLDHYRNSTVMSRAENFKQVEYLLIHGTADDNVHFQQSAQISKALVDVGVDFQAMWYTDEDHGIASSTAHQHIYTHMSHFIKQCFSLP
Experimental: The human colonic carcinoma cell line Caco-2 was obtained from the American Type Culture Collection (ATCC HTB 37). Differentiation of the cells to induce DPP-IV expression was accomplished as described by Reisher, et al. in an article entitled “Increased expression of intestinal cell line Caco-2” in Proc. Natl. Acad. Sci., Vol. 90, pgs. […] Cell extract is prepared from cells solubilized in 10 mM Tris HCl, 0.15 M NaCl, 0.04 t.i.u.aprotinin, 0.5% nonidet-P40, pH 8.0, which is centrifuged at 35,000 g for 30 min. at 4° C. to remove cell debris. The assay is conducted by adding 20 μg solubilized Caco-2 protein, diluted to a final volume of 125 μl in assay buffer (25 mM Tris HCl pH 7.4, 140 mM NaCl, 10 mM KCl, 1% bovine serum albumin) to microtiter plate wells. After a 60 min. incubation at room temperature, the reaction is initiated by adding 25 μl of 1 mM substrate (H-Alanine-Proline-pNA; pNA is p-nitroaniline). […] A standard curve of free p-nitroaniline is generated using 0-500 μM solutions of free pNA in assay buffer. The curve generated is linear and is used for interpolation of substrate consumption (catalytic activity in nmoles substrate cleaved/min).
The potency of the test compounds as DPP-IV inhibitors, expressed as IC50, is calculated from 8-point, dose-response curves using a 4-parameter logistic function.

| melting point [°C] | IC50 [1] [nM] | IC50 [2] [nM] | IC50 [3] [nM] | Structure (SMILES) |
| --- | --- | --- | --- | --- |
| 128 to 130 |  |  |  | CC(C)N(C(=O)NCC(C)(C)NCC(=O)N1CCC[C@H]1C#N)C(C)C (as salt: hydrochloride) [Ex. 2J, 1-[[[2-[[(diisopropylamino)carbonyl]amino]-1,1-dimethylethyl]amino]acetyl]-2-cyano-(S)-pyrrolidine] |
| 82 to 84 |  |  |  | CC(C)N(C(=O)N1CCC(NCC(=O)N2CCC[C@H]2C#N)CC1)C(C)C (as salt: hydrochloride) [Ex. 2JJ, 1-[[[1-[(diisopropylamino)carbonyl]-4-piperidinyl]amino]acetyl]-2-cyano-(S)-pyrrolidine] |
| 112 to 114 |  |  |  | CC(C)(CNC(=O)Nc1ccc(Cl)cc1)NCC(=O)N1CCC[C@H]1C#N (as salt: hydrochloride) [Ex. 2K, 1-[[[2-[[[(4-chlorophenyl)amino]carbonyl]amino]-1,1-dimethylethyl]amino]acetyl]-2-cyano-(S)-pyrrolidine] |
| 242 to 244 |  |  |  | N#Cc1ccc(NC2CCC(NCC(=O)N3CCC[C@H]3C#N)CC2)nc1 (stereo partly drawn) (as salt: hydrochloride) [Ex. 2L, 1-[[[4-[(5-cyano-2-pyridinyl)amino]cyclohexyl]amino]acetyl]-2-cyano-(S)-pyrrolidine] |
| 160 to 162 |  |  |  | N#C[C@@H]1CCCN1C(=O)CNC1CCN(c2nc(-c3ccc(Cl)cc3)cs2)CC1 (as salt: hydrochloride) [Ex. 2LL] |
| 120 to 122 |  |  |  | N#C[C@@H]1CCCN1C(=O)CNC1CCC(NS(=O)(=O)c2ccccc2)CC1 (stereo partly drawn) (as salt: hydrochloride) [Ex. 2M, 1-[[[4-[(phenylsulfonyl)amino]cyclohexyl]amino]acetyl]-2-cyano-(S)-pyrrolidine] |
| 154 to 156 |  |  |  | COc1ccc(-c2csc(N3CCC(NCC(=O)N4CCC[C@H]4C#N)CC3)n2)cc1 (as salt: hydrochloride) [Ex. 2MM] |
| 289 to 292 |  |  |  | N#C[C@@H]1CCCN1C(=O)CN[C@H]1CC[C@H](Nc2ncccc2C(F)(F)F)CC1 (as salt: hydrochloride) [Ex. 2P, 1-[[4-[[(3-trifluoromethyl-2-pyridinyl)amino]cyclohexyl]amino]acetyl]-2-cyano-(S)-pyrrolidine] |
| 160 to 162 |  |  |  | N#C[C@@H]1CCCN1C(=O)CN[C@H]1CC[C@H](NS(=O)(=O)c2ccc(Cl)cc2)CC1 (as salt: hydrochloride) [Ex. 2Q, 1-[[[[4-[(4-chlorophenyl)sulfonyl]amino]cyclohexyl]amino]acetyl]-2-cyano-(S)-pyrrolidine] |
| 290 to 293 |  |  |  | N#C[C@@H]1CCCN1C(=O)CNC1CCC(Nc2ccnc(Cl)n2)CC1 (stereo partly drawn) (as salt: hydrochloride) [Ex. 2S, 1-[[[4-[(2-chloro-4-pyrimidinyl)amino]cyclohexyl]amino]acetyl]-2-cyano-(S)-pyrrolidine] |
| 260 to 263 |  |  |  | N#C[C@@H]1CCCN1C(=O)CN[C@H]1CC[C@H](NC(=O)c2ccc(Cl)cc2)CC1 (as salt: hydrochloride) [Ex. 2T, 1-[[[4-[(4-chlorobenzoyl)amino]cyclohexyl]amino]acetyl]-2-cyano-, (S)-pyrrolidine] |
| 290 to 294 |  |  |  | CC(C)(C)C(=O)NC1CCC(NCC(=O)N2CCC[C@H]2C#N)CC1 (stereo partly drawn) (as salt: hydrochloride) [Ex. 2U, 1-[[[4-[(2,2-dimethyl-1-oxopropyl)amino]cyclohexyl]amino]acetyl]-2-cyano-(S)-pyrrolidine] |
| 246 to 248 |  |  |  | N#C[C@@H]1CCCN1C(=O)CNC1CCC(Nc2nc3ccccc3s2)CC1 (stereo partly drawn) (as salt: hydrochloride) [Ex. 2V, 1-[[[4-[(2-benzothiazolyl)amino]cyclohexyl]amino]acetyl]-2-cyano-(S)-pyrrolidine] |
| 165 to 167 |  |  |  | N#Cc1ccc(NC2CCC(NCC(=O)N3CCC[C@H]3C#N)CC2)cc1 (stereo partly drawn) (as salt: hydrochloride) [Ex. 2W, 1-[[[4-[(4-cyanophenyl)amino]cyclohexyl]amino]acetyl]-2-cyano-(S)-pyrrolidine] |
| 189 to 190 |  |  |  | N#C[C@@H]1CCCN1C(=O)CNC1CCC(NC(=O)C2CCCCC2)CC1 (stereo partly drawn) (as salt: hydrochloride) [Ex. 2X, 1-[[[4-[(cyclohexylcarbonyl)amino]cyclohexyl]amino]acetyl]-2-cyano-(S)-pyrrolidine] |
| 290 to 294 |  |  |  | N#C[C@@H]1CCCN1C(=O)CNC1CCC(Nc2nc3cc(Cl)ccc3s2)CC1 (stereo partly drawn) (as salt: hydrochloride) [Ex. 2Y, 1-[[[4-[(5-chloro-2-benzothiazolyl)amino]cyclohexyl]amino]acetyl]-2-cyano-(S)-pyrrolidine] |
| 135 to 137 |  |  |  | N#C[C@@H]1CCCN1C(=O)CN[C@H]1CC[C@H](NS(=O)(=O)c2ccc(C(F)(F)F)cc2)CC1 (as salt: hydrochloride) [Ex. 2Z, 1-[[[4-[[[(4-trifluoromethyl)phenyl]sulfonyl]amino]cyclohexyl]amino]acetyl]-2-cyano-(S)-pyrrolidine] |
| > 300 |  |  |  | N#C[C@@H]1CCCN1C(=O)CNC1CCN(C(=O)C2CCCCC2)CC1 (as salt: hydrochloride) [Ex. 4A, 1-[[[1-(cyclohexylcarbonyl)-4-piperidinyl]amino]acetyl]-2-cyano-(S)-pyrrolidine] |
| 152 to 155 |  |  |  | N#C[C@@H]1CCCN1C(=O)CNC1CCN(C(=O)c2ccc(Cl)cc2)CC1 (as salt: hydrochloride) [Ex. 4B] |
| > 300 |  |  |  | N#C[C@@H]1CCCN1C(=O)CNC1CCN(S(=O)(=O)c2ccc(C(F)(F)F)cc2)CC1 (as salt: hydrochloride) [Ex. 4C] |
| > 300 |  |  |  | N#C[C@@H]1CCCN1C(=O)CNC1CCN(S(=O)(=O)c2ccccc2)CC1 (as salt: hydrochloride) [Ex. 4D, 1-[[(1-phenylsulfonyl-4-piperidinyl)amino]acetyl]-2-cyano-(S)-pyrrolidine] |
| 47 to 49 |  |  |  | CC(C)(CNc1ccc(C#N)cn1)NCC(=O)N1CCC[C@H]1C#N [Ex. 2A, 1-[[[2-[(5-cyano-2-pyridinyl)amino]-1,1-dimethylethyl]amino]acetyl]-2-cyano-(S)-pyrrolidine] |
|  | 33 | 16 | 56 | N#C[C@@H]1CCCN1C(=O)CN[C@H]1CC[C@H](NS(=O)(=O)c2cccs2)CC1 [Ex. 2AA] |
|  | 59 | 11 | 5 | CC(C)(CNc1ccc(C(F)(F)F)cn1)NCC(=O)N1CCC[C@H]1C#N [Ex. 2B, 1-[[[2-[(5-trifluoromethyl-2-pyridinyl)amino]-1,1-dimethylethyl]amino]acetyl]-2-cyano-(S)-pyrrolidine] |
|  | 38 | 13 | 19 | CC(C)(Cc1ccc(F)cc1)NCC(=O)N1CCC[C@H]1C#N [Ex. 2BB] |
|  | 93 | 71 | 44 | CC(C)(CNc1ncccc1Cl)NCC(=O)N1CCC[C@H]1C#N [Ex. 2D, 1-[[[2-[(3-chloro-2-pyridinyl)amino]-1,1-dimethylethyl]amino]acetyl]-2-cyano-(S)-pyrrolidine] |
|  | 66 | 38 | 156 | CCCCCC12CCC(NCC(=O)N3CCC[C@H]3C#N)(CC1)CC2 [Ex. 2DD, 1-[[(4-pentylbicyclo[2.2.2]oct-1-yl)amino]acetyl]-2-cyano-(S)-pyrrolidine] |
|  | 46 | 37 | 45 | CC(C)(CNc1ncc(Cl)cc1Cl)NCC(=O)N1CCC[C@H]1C#N [Ex. 2F, 1-[[[2-[(3,5-dichloro-2-pyridinyl)amino]-1,1-dimethylethyl]amino]acetyl]-2-cyano-(S)-pyrrolidine] |
|  |  | 111 |  | CC(C)(CNc1ncccc1C(F)(F)F)NCC(=O)N1CCC[C@H]1C#N [Ex. 2G, 1-[[[2-[(3-trifluoromethyl-2-pyridinyl)amino]-1,1-dimethylethyl]amino]acetyl]-2-cyano-(S)-pyrrolidine] |
| 78 to 80 |  |  |  | N#C[C@@H]1CCCN1C(=O)CNC1CCC(NC(=O)c2ccccc2)CC1 (stereo partly drawn) [Ex. 2N, 1-[[[4-(benzoylamino)cyclohexyl]amino]acetyl]-2-cyano-(S)-pyrrolidine] |
